The source of these data is patent publication US20240158446A1, “CYCLIC COMPOUND HAVING SELECTIVE INHIBITORY ACTION ON KRAS OVER HRAS AND NRAS” (CHUGAI SEIYAKU KABUSHIKI KAISHA, priority 2021, published 2024).

Assay [1] concerns the target GDP-bound KRAS wild-type protein (Homo sapiens, UniProt P01116). Put plainly: Binding to KRAS by surface plasmon resonance (SPR), Single Cycle Kinetics. The settings on record: SPR, Single Cycle Kinetics, GDP-bound KRAS wild-type protein; read-out: KRAS KD.
Assay [2] concerns the target GDP-bound NRAS wild-type protein (Homo sapiens, UniProt P01111). Description: Binding to NRAS by surface plasmon resonance (SPR), Single Cycle Kinetics. The settings on record: SPR, GDP-bound NRAS wild-type protein vs GDP-bound KRAS wild-type protein.
Assay [3] deals with GDP-bound HRAS wild-type protein (Homo sapiens, UniProt P01112). Put plainly: Binding to HRAS by surface plasmon resonance (SPR), Single Cycle Kinetics. The settings on record: SPR, GDP-bound HRAS wild-type protein vs GDP-bound KRAS wild-type protein.
Chain of GDP-bound HRAS wild-type protein (P01112 whole entry): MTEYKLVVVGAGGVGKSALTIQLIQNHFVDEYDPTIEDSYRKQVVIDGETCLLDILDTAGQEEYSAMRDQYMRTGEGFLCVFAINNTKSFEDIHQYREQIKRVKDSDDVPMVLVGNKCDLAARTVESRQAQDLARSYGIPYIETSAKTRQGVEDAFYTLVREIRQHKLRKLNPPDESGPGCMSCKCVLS

The structures appear in SMILES notation. pKd: −log10 of the molar value.

Chain of GDP-bound NRAS wild-type protein (P01111 whole entry): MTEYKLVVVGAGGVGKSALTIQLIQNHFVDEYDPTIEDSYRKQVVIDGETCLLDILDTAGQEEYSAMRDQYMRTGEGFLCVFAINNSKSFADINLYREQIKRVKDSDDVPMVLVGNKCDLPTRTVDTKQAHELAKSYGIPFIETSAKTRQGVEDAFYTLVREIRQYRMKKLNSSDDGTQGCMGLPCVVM
Chain of GDP-bound KRAS wild-type protein (P01116 whole entry): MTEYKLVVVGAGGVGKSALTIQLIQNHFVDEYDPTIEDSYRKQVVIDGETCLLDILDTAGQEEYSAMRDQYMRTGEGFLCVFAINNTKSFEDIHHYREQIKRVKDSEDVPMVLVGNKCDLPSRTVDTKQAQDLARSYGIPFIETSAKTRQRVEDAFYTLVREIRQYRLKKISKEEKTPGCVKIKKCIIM

In the case of `CCO[C@@H]1C[C@H]2C(=O)NC3(CCC3)C(=O)N(C)[C@@H](C3CCCC3)C(=O)N(C)[C@H](C(=O)N(C)C)CC(=O)N(C)[C@@H](CCC(F)F)C(=O)N[C@@H]([C@@H](C)CC)C(=O)N(C)CC(=O)N(C)[C@H]3C/C=C\CCN(C3=O)[C@@H](Cc3ccc(C(F)(F)F)cc3)C(=O)N(C)CC(=O)N[C@@H](CCc3cc(F)c(C(F)(F)F)c(F)c3)C(=O)N2C1` [PP1121, (2S,8S,12R,14S,20S,23S,27S,30S,36S,38Z)-20-cyclopentyl-27-(3,3-difluoropropyl)-8-[2-[3,5-difluoro-4-(trifluoromethyl)phenyl]ethyl]-12-ethoxy-N,N,4,19,22,26,32,35-octamethyl-30-[(1S)-1-methylpropyl]-3,6,9,15,18,21,25,28,31,34,42-undecaoxo-2-[[4-(trifluoromethyl)phenyl]methyl]spiro[1,4,7,10,16,19,22,26,29,32,35-undecazatricyclo[34.5.1.0^10,14]dotetracont-38-ene-17,1′-cyclobutane]-23-carboxamide], in assay [1], the pKd is 10.31. In addition, the “NRAS/KRAS (ratio of KD value for NRAS to KD value for KRAS)” value in assay [2] is “A (a compound having 10 or more and less than 20 is denoted as A)”. In assay [3], the “HRAS/KRAS (ratio of KD value for HRAS to KD value for KRAS)” value is “A (a compound having 10 or more and less than 20 is denoted as A)”.

With `CCO[C@@H]1C[C@H]2C(=O)NC3(CCC3)C(=O)N(C)[C@@H](C3CCCC3)C(=O)N(C)[C@H](C(=O)N(C)C)CC(=O)N(C)[C@@H](CCC(=O)N(C)C)C(=O)N[C@@H]([C@@H](C)CC)C(=O)N(C)CC(=O)N(C)[C@H]3C/C=C\CCN(C3=O)[C@@H](Cc3ccc(C(F)(F)F)cc3)C(=O)N(C)CC(=O)N[C@@H](CCc3cc(F)c(C(F)(F)F)c(F)c3)C(=O)N2C1` [PP1122], the pKd in assay [1] is 10.33. In addition, the “NRAS/KRAS (ratio of KD value for NRAS to KD value for KRAS)” value in assay [2] was “A (a compound having 10 or more and less than 20 is denoted as A)”. For the same compound, the “HRAS/KRAS (ratio of KD value for HRAS to KD value for KRAS)” value in assay [3] was “B (a compound having 3 or more and less than 10 is denoted as B)”.

Regarding `CCO[C@@H]1C[C@H]2C(=O)NC3(CCC3)C(=O)N(C)[C@@H](C3CCCC3)C(=O)N(C)[C@H](C(=O)N(C)C)CC(=O)N(C)[C@@H](Cc3cccs3)C(=O)N[C@@H]([C@@H](C)CC)C(=O)N(C)CC(=O)N(C)[C@H]3C/C=C\CCN(C3=O)[C@@H](Cc3ccc(C(F)(F)F)cc3)C(=O)N(C)CC(=O)N[C@@H](CCc3cc(F)c(C(F)(F)F)c(F)c3)C(=O)N2C1` [PP1123, (2S,8S,12R,14S,20S,23S,27S,30S,36S,38Z)-20-cyclopentyl-8-[2-[3,5-difluoro-4-(trifluoromethyl)phenyl]ethyl]-12-ethoxy-N,N,4,19,22,26,32,35-octamethyl-30-[(1S)-1-methylpropyl]-3,6,9,15,18,21,25,28,31,34,42-undecaoxo-27-(2-thienylmethyl)-2-[[4-(trifluoromethyl)phenyl]methyl]spiro[1,4,7,10,16,19,22,26,29,32,35-undecazatricyclo[34.5.1.0^10,14]dotetracont-38-ene-17,1′-cyclobutane]-23-carboxamide], in assay [1], the pKd is 10.14. Further, the “NRAS/KRAS (ratio of KD value for NRAS to KD value for KRAS)” value in assay [2] is “A (a compound having 10 or more and less than 20 is denoted as A)”. For the same compound, the “HRAS/KRAS (ratio of KD value for HRAS to KD value for KRAS)” value in assay [3] is “B (a compound having 3 or more and less than 10 is denoted as B)”.

For `CCO[C@@H]1C[C@H]2C(=O)NC3(CCC3)C(=O)N(C)[C@@H](C3CCCC3)C(=O)N(C)[C@H](C(=O)N(C)C)CC(=O)N(C)[C@@H](CC(F)(F)F)C(=O)N[C@@H]([C@@H](C)CC)C(=O)N(C)CC(=O)N(C)[C@H]3C/C=C\CCN(C3=O)[C@@H](Cc3ccc(C(F)(F)F)cc3)C(=O)N(C)CC(=O)N[C@@H](CCc3cc(F)c(C(F)(F)F)c(F)c3)C(=O)N2C1` [PP1124, (2S,8S,12R,14S,20S,23S,27S,30S,36S,38Z)-20-cyclopentyl-8-[2-[3,5-difluoro-4-(trifluoromethyl)phenyl]ethyl]-12-ethoxy-N,N,4,19,22,26,32,35-octamethyl-30-[(1S)-1-methylpropyl]-3,6,9,15,18,21,25,28,31,34,42-undecaoxo-27-(2,2,2-trifluoroethyl)-2-[[4-(trifluoromethyl)phenyl]methyl]spiro[1,4,7,10,16,19,22,26,29,32,35-undecazatricyclo[34.5.1.0^10,14]dotetracont-38-ene-17,1′-cyclobutane]-23-carboxamide], the pKd in assay [1] is 10.25. In assay [2], the “NRAS/KRAS (ratio of KD value for NRAS to KD value for KRAS)” value is “A (a compound having 10 or more and less than 20 is denoted as A)”. In addition, the “HRAS/KRAS (ratio of KD value for HRAS to KD value for KRAS)” value in assay [3] was “B (a compound having 3 or more and less than 10 is denoted as B)”.

For `CCO[C@@H]1C[C@H]2C(=O)NC3(CCC3)C(=O)N(C)[C@@H](C3CCCC3)C(=O)N(C)[C@H](C(=O)N(C)C)CC(=O)N(C)[C@@H](CC3CCCCC3)C(=O)N[C@@H]([C@@H](C)CC)C(=O)N(C)CC(=O)N(C)[C@H]3C/C=C\CCN(C3=O)[C@@H](Cc3ccc(C(F)(F)F)cc3)C(=O)N(C)CC(=O)N[C@@H](CCc3cc(F)c(C(F)(F)F)c(F)c3)C(=O)N2C1` [PP1125, (2S,8S,12R,14S,20S,23S,27S,30S,36S,38Z)-27-(cyclohexylmethyl)-20-cyclopentyl-8-[2-[3,5-difluoro-4-(trifluoromethyl)phenyl]ethyl]-12-ethoxy-N,N,4,19,22,26,32,35-octamethyl-30-[(1S)-1-methylpropyl]-3,6,9,15,18,21,25,28,31,34,42-undecaoxo-2-[[4-(trifluoromethyl)phenyl]methyl]spiro[1,4,7,10,16,19,22,26,29,32,35-undecazatricyclo[34.5.1.0^10,14]dotetracont-38-ene-17,1′-cyclobutane]-23-carboxamide], the pKd in assay [1] was 10.15. Moreover, the “NRAS/KRAS (ratio of KD value for NRAS to KD value for KRAS)” value in assay [2] was “A (a compound having 10 or more and less than 20 is denoted as A)”. Further, the “HRAS/KRAS (ratio of KD value for HRAS to KD value for KRAS)” value in assay [3] is “A (a compound having 10 or more and less than 20 is denoted as A)”.

`CCO[C@@H]1C[C@H]2C(=O)NC3(CCC3)C(=O)N(C)[C@@H](C3CCCC3)C(=O)N(C)[C@H](C(=O)N(C)C)CC(=O)N(C)[C@@H](Cc3cccc(F)c3)C(=O)N[C@@H]([C@@H](C)CC)C(=O)N(C)CC(=O)N(C)[C@H]3C/C=C\CCN(C3=O)[C@@H](Cc3ccc(C(F)(F)F)cc3)C(=O)N(C)CC(=O)N[C@@H](CCc3cc(F)c(C(F)(F)F)c(F)c3)C(=O)N2C1` [PP1126, (2S,8S,12R,14S,20S,23S,27S,30S,36S,38Z)-20-cyclopentyl-8-[2-[3,5-difluoro-4-(trifluoromethyl)phenyl]ethyl]-12-ethoxy-27-[(3-fluorophenyl)methyl]-N,N,4,19,22,26,32,35-octamethyl-30-[(1S)-1-methylpropyl]-3,6,9,15,18,21,25,28,31,34,42-undecaoxo-2-[[4-(trifluoromethyl)phenyl]methyl]spiro[1,4,7,10,16,19,22,26,29,32,35-undecazatricyclo[34.5.1.0^10,14]dotetracont-38-ene-17,1′-cyclobutane]-23-carboxamide]: the pKd in assay [1] is 10.05. Also, in assay [2], the “NRAS/KRAS (ratio of KD value for NRAS to KD value for KRAS)” value is “A (a compound having 10 or more and less than 20 is denoted as A)”. Moreover, the “HRAS/KRAS (ratio of KD value for HRAS to KD value for KRAS)” value in assay [3] was “A (a compound having 10 or more and less than 20 is denoted as A)”.

Take `CCO[C@@H]1C[C@H]2C(=O)NC3(CCC3)C(=O)N(C)[C@@H](C3CCCC3)C(=O)N(C)[C@H](C(=O)N(C)C)CC(=O)N(C)[C@@H](Cc3cccc(Cl)c3)C(=O)N[C@@H]([C@@H](C)CC)C(=O)N(C)CC(=O)N(C)[C@H]3C/C=C\CCN(C3=O)[C@@H](Cc3ccc(C(F)(F)F)cc3)C(=O)N(C)CC(=O)N[C@@H](CCc3cc(F)c(C(F)(F)F)c(F)c3)C(=O)N2C1` [PP1127, (2S,8S,12R,14S,20S,23S,27S,30S,36S,38Z)-27-[(3-chlorophenyl)methyl]-20-cyclopentyl-8-[2-[3,5-difluoro-4-(trifluoromethyl)phenyl]ethyl]-12-ethoxy-N,N,4,19,22,26,32,35-octamethyl-30-[(1S)-1-methylpropyl]-3,6,9,15,18,21,25,28,31,34,42-undecaoxo-2-[[4-(trifluoromethyl)phenyl]methyl]spiro[1,4,7,10,16,19,22,26,29,32,35-undecazatricyclo[34.5.1.0^10,14]dotetracont-38-ene-17,1′-cyclobutane]-23-carboxamide]: the pKd in assay [1] was 9.96. Besides, in assay [2], the “NRAS/KRAS (ratio of KD value for NRAS to KD value for KRAS)” value is listed as “AA (a compound having 20 or more is denoted as AA)”. The “HRAS/KRAS (ratio of KD value for HRAS to KD value for KRAS)” value in assay [3] was “A (a compound having 10 or more and less than 20 is denoted as A)”.

`CC[C@H](C)[C@@H]1NC(=O)[C@H](CC)N(C)C(=O)C[C@@H](C(=O)N(C)C)N(C)C(=O)[C@H](C2CCCC2)N(C)C(=O)C2(CCC2)NC(=O)[C@@H]2C[C@H](OC)CN2C(=O)[C@H](CCc2cc(F)c(C(F)(F)F)c(F)c2)NC(=O)CN(C)C(=O)[C@H](Cc2ccc(C(F)(F)F)cc2)N2CC/C=C\C[C@@H](C2=O)N(C)C(=O)CN(C)C1=O` [PP1128, (2S,8S,12S,14S,20S,23S,27S,30S,36S,38Z)-20-cyclopentyl-8-[2-[3,5-difluoro-4-(trifluoromethyl)phenyl]ethyl]-27-ethyl-12-methoxy-N,N,4,19,22,26,32,35-octamethyl-30-[(1S)-1-methylpropyl]-3,6,9,15,18,21,25,28,31,34,42-undecaoxo-2-[[4-(trifluoromethyl)phenyl]methyl]spiro[1,4,7,10,16,19,22,26,29,32,35-undecazatricyclo[34.5.1.0^10,14]dotetracont-38-ene-17,1′-cyclobutane]-23-carboxamide]: in assay [1], the pKd is 9.92. Moreover, the “NRAS/KRAS (ratio of KD value for NRAS to KD value for KRAS)” value in assay [2] is reported as “AA (a compound having 20 or more is denoted as AA)”. Moreover, the “HRAS/KRAS (ratio of KD value for HRAS to KD value for KRAS)” value in assay [3] was “A (a compound having 10 or more and less than 20 is denoted as A)”.
